{"source": "PubChem BioAssay AID1963845", "about": "(Molecular Pharmacology Branch, DTP, NCI, 2024);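 note: luminescence signal used as surrogate measure of viable cells; spheroids exposed to compounds for seven days before readout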;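 for viability, T/C: 100% = DMSO vehicle control viability as luminescence relative to vehicle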", "test_system": "429239-143-T-J1-PDC complex spheroid viability", "test": "Anticancer human tumor 429239-143-T-J1-PDC patient-derived small cell lung carcinoma cell line growth inhibition [POLQ]", "settings": "for IC50: curve of first compound; for viability, T/C: stronger effect = lower value", "how_it_was_run": "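PDC + HUVEC + MSC complex spheroids; POLQ inhibitors ± partner drugs; top conc. at/near clinical Cmax, else 10 microM (SN-38 1 microM), half-log dilutions; 37 degrees C, 5% CO2.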", "key": {"[1]": {"settings": "second compound 0.0316 µM, first compound 0.0316 µM"}, "[2]": {"settings": "second compound 0.0316 µM, first compound 0.1 µM"}, "[3]": {"settings": "second compound 0.0316 µM, first compound 0.316 µM"}, "[4]": {"settings": "second compound 0.0316 µM, first compound 1 µM"}, "[5]": {"settings": "second compound 0.0316 µM, first compound 3.16 µM"}, "[6]": {"settings": "second compound 0.0316 µM, first compound 10 µM"}, "[7]": {"settings": "second compound 0.1 µM, first compound 0.0316 µM"}, "[8]": {"settings": "second compound 0.1 µM, first compound 0.1 µM"}, "[9]": {"settings": "second compound 0.1 µM, first compound 0.316 µM"}, "[10]": {"settings": "second compound 0.1 µM, first compound 1 µM"}, "[11]": {"settings": "second compound 0.1 µM, first compound 3.16 µM"}, "[12]": {"settings": "second compound 0.1 µM, first compound 10 µM"}, "[13]": {"settings": "second compound 0.316 µM, first compound 0.0316 µM"}, "[14]": {"settings": "second compound 0.316 µM, first compound 0.1 µM"}, "[15]": {"settings": "second compound 0.316 µM, first compound 0.316 µM"}, "[16]": {"settings": "second compound 0.316 µM, first compound 1 µM"}, "[17]": {"settings": "second compound 0.316 µM, first compound 3.16 µM"}, "[18]": {"settings": "second compound 0.316 µM, first compound 10 µM"}, "[19]": {"settings": "second compound 1 µM, first compound 0.0316 µM"}, "[20]": {"settings": "second compound 1 µM, first compound 0.1 µM"}, "[21]": {"settings": "second compound 1 µM, first compound 0.316 µM"}, "[22]": {"settings": "second compound 1 µM, first compound 1 µM"}, "[23]": {"settings": "second compound 1 µM, first compound 3.16 µM"}, "[24]": {"settings": "second compound 1 µM, first compound 10 µM"}, "[25]": {"settings": "second compound 3.16 µM, first compound 0.0316 µM"}, "[26]": {"settings": "second compound 3.16 µM, first compound 0.1 µM"}, "[27]": {"settings": "second compound 3.16 µM, first compound 0.316 µM"}, "[28]": {"settings": "second compound 3.16 µM, first compound 1 µM"}, "[29]": {"settings": "second compound 3.16 µM, first compound 3.16 µM"}, "[30]": {"settings": "second compound 3.16 µM, first compound 10 µM"}, "[31]": {"settings": "second compound 10 µM, first compound 0.0316 µM"}, "[32]": {"settings": "second compound 10 µM, first compound 0.1 µM"}, "[33]": {"settings": "second compound 10 µM, first compound 0.316 µM"}, "[34]": {"settings": "second compound 10 µM, first compound 1 µM"}, "[35]": {"settings": "second compound 10 µM, first compound 3.16 µM"}, "[36]": {"settings": "second compound 10 µM, first compound 10 µM"}}}
{"smiles": "C#Cc1c(F)ccc2cc(O)cc(-c3ncc4c(N5CC6CCC(C5)N6)nc(OCC56CCCN5CC(F)C6)nc4c3F)c12", "note": "(centres undefined) + Nc1ccc(C#CCN(C(=O)Cc2ncc(C(F)(F)F)cc2C(F)(F)F)c2ccc(F)cc2)nn1", "values": [{"measurement": "IC50", "setting": "second compound 0.0316 µM", "result": "> 10", "unit": "µM"}, {"measurement": "IC50", "setting": "second compound 0.1 µM", "result": "> 10", "unit": "µM"}, {"measurement": "IC50", "setting": "second compound 0.316 µM", "result": "> 10", "unit": "µM"}, {"measurement": "IC50", "setting": "second compound 1 µM", "result": "> 10", "unit": "µM"}, {"measurement": "IC50", "setting": "second compound 3.16 µM", "result": "> 10", "unit": "µM"}, {"measurement": "IC50", "setting": "second compound 10 µM", "result": "> 10", "unit": "µM"}, {"measurement": "viability, T/C", "setting": "[1]", "result": 98.6, "unit": "%"}, {"measurement": "viability, T/C", "setting": "[2]", "result": 106, "unit": "%"}, {"measurement": "viability, T/C", "setting": "[3]", "result": 103, "unit": "%"}, {"measurement": "viability, T/C", "setting": "[4]", "result": 109, "unit": "%"}, {"measurement": "viability, T/C", "setting": "[5]", "result": 102, "unit": "%"}, {"measurement": "viability, T/C", "setting": "[6]", "result": 89.3, "unit": "%"}, {"measurement": "viability, T/C", "setting": "[7]", "result": 103, "unit": "%"}, {"measurement": "viability, T/C", "setting": "[8]", "result": 107, "unit": "%"}, {"measurement": "viability, T/C", "setting": "[9]", "result": 102, "unit": "%"}, {"measurement": "viability, T/C", "setting": "[10]", "result": 98.7, "unit": "%"}, {"measurement": "viability, T/C", "setting": "[11]", "result": 101, "unit": "%"}, {"measurement": "viability, T/C", "setting": "[12]", "result": 95, "unit": "%"}, {"measurement": "viability, T/C", "setting": "[13]", "result": 106, "unit": "%"}, {"measurement": "viability, T/C", "setting": "[14]", "result": 93, "unit": "%"}, {"measurement": "viability, T/C", "setting": "[15]", "result": 102, "unit": "%"}, {"measurement": "viability, T/C", "setting": "[16]", "result": 100, "unit": "%"}, {"measurement": "viability, T/C", "setting": "[17]", "result": 99.9, "unit": "%"}, {"measurement": "viability, T/C", "setting": "[18]", "result": 96.9, "unit": "%"}, {"measurement": "viability, T/C", "setting": "[19]", "result": 102, "unit": "%"}, {"measurement": "viability, T/C", "setting": "[20]", "result": 99.8, "unit": "%"}, {"measurement": "viability, T/C", "setting": "[21]", "result": 105, "unit": "%"}, {"measurement": "viability, T/C", "setting": "[22]", "result": 105, "unit": "%"}, {"measurement": "viability, T/C", "setting": "[23]", "result": 99.7, "unit": "%"}, {"measurement": "viability, T/C", "setting": "[24]", "result": 93.1, "unit": "%"}, {"measurement": "viability, T/C", "setting": "[25]", "result": 99.4, "unit": "%"}, {"measurement": "viability, T/C", "setting": "[26]", "result": 98, "unit": "%"}, {"measurement": "viability, T/C", "setting": "[27]", "result": 106, "unit": "%"}, {"measurement": "viability, T/C", "setting": "[28]", "result": 93.8, "unit": "%"}, {"measurement": "viability, T/C", "setting": "[29]", "result": 103, "unit": "%"}, {"measurement": "viability, T/C", "setting": "[30]", "result": 96.8, "unit": "%"}, {"measurement": "viability, T/C", "setting": "[31]", "result": 93.9, "unit": "%"}, {"measurement": "viability, T/C", "setting": "[32]", "result": 106, "unit": "%"}, {"measurement": "viability, T/C", "setting": "[33]", "result": 97.4, "unit": "%"}, {"measurement": "viability, T/C", "setting": "[34]", "result": 102, "unit": "%"}, {"measurement": "viability, T/C", "setting": "[35]", "result": 101, "unit": "%"}, {"measurement": "viability, T/C", "setting": "[36]", "result": 90.5, "unit": "%"}]}
{"smiles": "O=C(Nc1ccc(O)c(NS(=O)(=O)c2ccc(F)cc2)c1)c1ccc(-c2ccccc2)cc1", "note": "+ Nc1ccc(C#CCN(C(=O)Cc2ncc(C(F)(F)F)cc2C(F)(F)F)c2ccc(F)cc2)nn1", "values": [{"measurement": "IC50", "setting": "second compound 0.0316 µM", "result": "> 10", "unit": "µM"}, {"measurement": "IC50", "setting": "second compound 0.1 µM", "result": "> 10", "unit": "µM"}, {"measurement": "IC50", "setting": "second compound 0.316 µM", "result": "> 10", "unit": "µM"}, {"measurement": "IC50", "setting": "second compound 1 µM", "result": "> 10", "unit": "µM"}, {"measurement": "IC50", "setting": "second compound 3.16 µM", "result": "> 10", "unit": "µM"}, {"measurement": "IC50", "setting": "second compound 10 µM", "result": "> 10", "unit": "µM"}, {"measurement": "viability, T/C", "setting": "[1]", "result": 102, "unit": "%"}, {"measurement": "viability, T/C", "setting": "[2]", "result": 106, "unit": "%"}, {"measurement": "viability, T/C", "setting": "[3]", "result": 89.5, "unit": "%"}, {"measurement": "viability, T/C", "setting": "[4]", "result": 105, "unit": "%"}, {"measurement": "viability, T/C", "setting": "[5]", "result": 106, "unit": "%"}, {"measurement": "viability, T/C", "setting": "[6]", "result": 110, "unit": "%"}, {"measurement": "viability, T/C", "setting": "[7]", "result": 105, "unit": "%"}, {"measurement": "viability, T/C", "setting": "[8]", "result": 109, "unit": "%"}, {"measurement": "viability, T/C", "setting": "[9]", "result": 112, "unit": "%"}, {"measurement": "viability, T/C", "setting": "[10]", "result": 106, "unit": "%"}, {"measurement": "viability, T/C", "setting": "[11]", "result": 109, "unit": "%"}, {"measurement": "viability, T/C", "setting": "[12]", "result": 99, "unit": "%"}, {"measurement": "viability, T/C", "setting": "[13]", "result": 111, "unit": "%"}, {"measurement": "viability, T/C", "setting": "[14]", "result": 103, "unit": "%"}, {"measurement": "viability, T/C", "setting": "[15]", "result": 104, "unit": "%"}, {"measurement": "viability, T/C", "setting": "[16]", "result": 108, "unit": "%"}, {"measurement": "viability, T/C", "setting": "[17]", "result": 116, "unit": "%"}, {"measurement": "viability, T/C", "setting": "[18]", "result": 98.2, "unit": "%"}, {"measurement": "viability, T/C", "setting": "[19]", "result": 115, "unit": "%"}, {"measurement": "viability, T/C", "setting": "[20]", "result": 109, "unit": "%"}, {"measurement": "viability, T/C", "setting": "[21]", "result": 95.8, "unit": "%"}, {"measurement": "viability, T/C", "setting": "[22]", "result": 106, "unit": "%"}, {"measurement": "viability, T/C", "setting": "[23]", "result": 113, "unit": "%"}, {"measurement": "viability, T/C", "setting": "[24]", "result": 109, "unit": "%"}, {"measurement": "viability, T/C", "setting": "[25]", "result": 107, "unit": "%"}, {"measurement": "viability, T/C", "setting": "[26]", "result": 103, "unit": "%"}, {"measurement": "viability, T/C", "setting": "[27]", "result": 103, "unit": "%"}, {"measurement": "viability, T/C", "setting": "[28]", "result": 101, "unit": "%"}, {"measurement": "viability, T/C", "setting": "[29]", "result": 97.1, "unit": "%"}, {"measurement": "viability, T/C", "setting": "[30]", "result": 106, "unit": "%"}, {"measurement": "viability, T/C", "setting": "[31]", "result": 102, "unit": "%"}, {"measurement": "viability, T/C", "setting": "[32]", "result": 96.6, "unit": "%"}, {"measurement": "viability, T/C", "setting": "[33]", "result": 103, "unit": "%"}, {"measurement": "viability, T/C", "setting": "[34]", "result": 93.7, "unit": "%"}, {"measurement": "viability, T/C", "setting": "[35]", "result": 95.1, "unit": "%"}, {"measurement": "viability, T/C", "setting": "[36]", "result": 96.3, "unit": "%"}]}
